Laboratory results reported in publication PMC9080739 (2018).

Assays:
[1] = test system: telo21 (DNA, G4) GGGTTAGGGTTAGGGTTAGGG; experiment: fluorescence titration; settings: K+ 60 mM; 10 mM Tris-HCl pH 7.4; ligand 5 μM
[2] = test system: dA21 (DNA, single strand) AAAAAAAAAAAAAAAAAAAAA; experiment: fluorescence enhancement; settings: K+ 60 mM; Tris-HCl pH 7.4; ligand 5 μM
[3] = test system: ds26 (DNA, duplex) CAATCGGATCGAATTCGATCCGATTG; experiment: fluorescence enhancement; settings: K+ 60 mM; Tris-HCl pH 7.4; ligand 5 μM

## CN(C)c1ccc(/C=C/c2cccc(/C=C/c3ccc(N(C)C)cc3)[n+]2C)cc1
[1]
  K: 1.44 ± 0.35 × 10^5 M^-1
[2]
  binding: weak
[3]
  binding: weak

## CSc1ccc(/C=C/c2cccc(/C=C/c3ccc(SC)cc3)[n+]2C)cc1
[1]
  K: 1.18 ± 0.21 × 10^5 M^-1
